Values joined by “and” are separate entries in the source; they are usually repeats but may differ in a detail not shown here. Equal entries are not always repeated. “Also recorded” adds a separate entry of the source. Where two headings read alike, the source gives them in different places.
What was measured:
[1] = cited from earlier work
[2] = tested on: human metabolic pathways (KEGG); experiment: Untargeted urine pharmacometabolomics (pre-dose U0 versus U1 0–4 h, U2 4–8 h, U3 8–12 h, n = 6), mummichog functional pathway analysis; type: in vivo; details: urine collections 0–12 h
[3] = tested on: human metabolic pathways (KEGG); experiment: Untargeted plasma pharmacometabolomics dataset A (pre-dose versus T2.5, 3, 3.5 h, n = 6), mummichog functional pathway analysis; details: time course 0–12 h
clinical = details: human, in vivo
[4] = Clinical safety, adverse event and glucose monitoring after single-dose metformin 1000 mg in healthy subjects; type: in vivo, human
Method: Three cohorts were planned to ensure sufficient clinical ward staff and space to monitor every subject on the dosing day. Subjects were housed in a controlled environment, and standardized meals were provided to each cohort. The blood samples were collected using an ethylenediaminetetraacetic acid (EDTA) tube and centrifuged at 10,000 rpm for 10 min at 4. The plasma samples together with the urine samples were kept in a -80 °C freezer in cryovials for further analysis. The subjects were monitored for adverse events until seven days post-dose. Pre-dose and peak-concentration plasma samples were used for untargeted pharmacometabolomic analysis to determine the treatment metabotypes.

CN(C)C(=N)N=C(N)N [metformin]
Tmax (male, human, in vivo): 3 h | T_max (male, human, in vivo, po): 2.5 (2.5–3.0) h | CL (male, human, in vivo, po, 1000 mg): 1884 (32.3) mL/min | Tmax (subject S6): 2 h | Tmax (subject S8): 3.5 h and 2 h | Cmax (subject S10): 1391.3 ng/mL | Tmax (subject S15): 4 h | Tmax (subject S16): 2 h | Cmax (subject S17): 1381.7 ng/mL | Tmax (subject S17): 4 h | peak plasma concentration ([1]; diabetic patients, 1000 mg twice daily chronically): approximately 40 µM | plasma concentration reached within three hours ([1]; oral 1000 mg, non-diabetic subjects): 25 µM | metformin in urine (untargeted LCMS, positive mode) [2]: achieved high concentration in the first 8 h and a slight reduction during 8–12 h | metformin intensity in plasma (untargeted LCMS, positive mode) [3]: a reducing trend happened at 8 h and a return to zero at 12 h | Cmax (clinical; 1000 mg, subject S4): 1430 ng/mL | Cmax (clinical; 1000 mg, subject S9): 1170 ng/mL | Tmax (clinical; male): 2.65 h | AUC(0-t) (clinical; male, 1000 mg): 10900 ng·h/mL | k el (clinical; male, Ke): 3.97e-05 s⁻¹ | AUC (clinical; male, po, 1000 mg): 9510 ng·h/mL | AUC(0-t) (clinical; male, po, 1000 mg, AUC_0–24): 8960 ng·h/mL | Glucose ([4]; 4 hours post-dose (before lunch), mean of 17 subjects): 4.7 mmol/L | Glucose ([4]; 4 hours post-dose, subject S01): 5.0 mmol/L | Glucose ([4]; 4 hours post-dose, subject S02): 4.7 mmol/L | Glucose ([4]; 4 hours post-dose, subject S04): 4.8 mmol/L | Glucose ([4]; 4 hours post-dose, subject S05): 5.2 mmol/L | Glucose ([4]; 4 hours post-dose, subject S06): 4.6 mmol/L | Glucose ([4]; 4 hours post-dose, subject S07): 4.7 mmol/L | Glucose ([4]; 4 hours post-dose, subject S08): 4.3 mmol/L | Glucose ([4]; 4 hours post-dose, subject S09): 4.4 mmol/L | Glucose ([4]; 4 hours post-dose, subject S10): 4.9 mmol/L | Glucose ([4]; 4 hours post-dose, subject S11): 4.7 mmol/L | Glucose ([4]; 4 hours post-dose, subject S12): 5.2 mmol/L | Glucose ([4]; 4 hours post-dose, subject S13): 4.4 mmol/L | Glucose ([4]; 4 hours post-dose, subject S14): 4.7 mmol/L | Glucose ([4]; 4 hours post-dose, subject S15): 4.4 mmol/L | Glucose ([4]; 4 hours post-dose, subject S16): 4.9 mmol/L | Glucose ([4]; 4 hours post-dose, subject S17): 4.6 mmol/L | Glucose ([4]; 4 hours post-dose, subject S18): 3.9 mmol/L | clinical laboratory characteristics ([4]; screening versus follow-up, clinician judgement): within normal range and considered no significant changes | adverse drug reaction ([4]; single dose 1000 mg, 17 healthy subjects, monitored until seven days post-dose): One subject experienced abdominal pain after the dosing; also recorded: stomach cramps; also recorded: one side effect was observed

— paper PMC9231303, “Pharmacokinetic–Pharmacometabolomic Approach in Early-Phase Clinical Trials: A Way Forward for Targeted Therapy in Type 2 Diabetes” (Pharmaceutics, 2022)
